Reference: PubChem BioAssay AID179 (DTP/NCI, 2004)
The source made the active and inactive calls.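 Rule for the calls: active = compounds giving half or more protection of infected cells from virus-caused growth loss, again on retest; inactive = the rest.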

System: CEM cells HIV-1 protection, formazan growth assay
Assay: NCI AIDS Antiviral Assay
Settings: for IC50: measured here: growth of uninfected CEM cells
Summary of the method: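 Category rules: moderately active means at least 50% protection on retest, and confirmed active means 100% protection reproducibly. The underlying data came from a formazan growth assay in HIV-1-infected CEM cells.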

SMILES	EC50 [µM]	IC50 [µM]	outcome
Cc1ccccc1NC(=O)/C(=N/NC(=O)CC#N)C1C(=O)N(c2ccccc2)N=C1N (stereo not drawn)	> 12.6	> 12.6	
COc1cc(C(=O)O)c2c(c1C)OC(=O)c1c(C)cc(O)c(C=O)c1O2	> 83.2	36.3	
COc1cc(C2=C(c3cc(OC)c4ccccc4c3OC)C(=O)c3ccccc3C2=O)c(OC)c2ccccc12	> 100	> 100	
COC(=O)C1=C(C(=O)OC)SC(=C2c3ccsc3-c3sccc32)S1	> 200	> 200	
O=[N+]([O-])C1(C2([N+](=O)[O-])CCCC2)CCCC1	44.7	110	
CC1=Nc2ccccc2S/C1=C(/C)NNS(=O)(=O)c1ccc(C)cc1	> 53.7	> 53.7	
CC1(C)CS(=O)(=O)CC(C)(C)C(=O)C1=O	> 200	> 200	
COc1ccc2cc3c4cc(OC)c(OC)cc4ccn3c2c1	> 23.4	22.9	
Cc1nc(-n2nc(-c3ccccc3)cc2-c2ccccc2)sc1C(=O)/C=C/c1ccc(Cl)c(Cl)c1	> 26.3	> 26.3	
O=c1[nH]n(Cc2ccccc2)c2ccc([N+](=O)[O-])cc12	> 200	25.7	
C#CC(C)(C)Oc1ccc2c(=O)c(-c3ccc(OC)c(OC)c3)coc2c1	> 200	22.4	
CCOP(=O)(OCC)C(=C1C=C(C(C)(C)C)C(=O)C(C(C)(C)C)=C1)P(=O)(OCC)OCC	> 200	0.933	
c1ccc2c(c1)c1c(n2CCOCCN2CCCCC2)CCCC1	> 200	8.32	
Oc1ccc2c(c1)OCC(O)(c1ccccc1O)C2 (stereo not drawn)			inactive
COc1cc(C2c3cc4c(cc3OC(NNc3ccccc3)C2C)OCO4)cc(OC)c1OC (stereo not drawn)	> 200	3.89	
O=c1n(-c2ccccc2)c(=O)n2n1C1C3C4C5C1C5C2C43 (stereo not drawn)	> 200	> 200	
O=c1c2cc(Br)ccc2ncn1COCc1ccccc1	> 200	89.1	
CN(C(=O)C1(C(=O)C=[N+]=[N-])CC1)c1ccccc1	> 1020	> 1020	
OC1CCC(C#CC#CC2CCC(O)CC2)CC1 (stereo not drawn)	> 100	> 100	
COc1ccc2c(c1)Oc1cc(O)ccc1[C@H]2c1ccccc1C(=O)NC(C)c1ccccc1 (stereo partly drawn)	> 15.8	13.8	
CCOC(=O)c1nc2ccc(C(F)(F)F)cc2nc1Oc1ccc(F)cc1	> 200	> 200	
CC(=O)N(CN1C(=O)CCC1C(=O)O)c1ccccc1Cl (stereo not drawn)			inactive
COc1cc(OC)c(/C=C\c2nccc3ccccc23)c(OC)c1	> 200	13.8	

SMILES	EC50 [µM]	IC50 [µM]	outcome
Cc1nnc2n1N=C1CC(C)(C)CC(=O)C1S2 (stereo not drawn)	> 105	> 105	
COP(=O)(OC)C(=O)N1N(c2ccc([N+](=O)[O-])cc2)C(=O)C(C)NC1(NNc1ccc([N+](=O)[O-])cc1)P(=O)(OC)OC (stereo not drawn)	> 107	56.2	
CC(O)C(O)C(N)CC=O (stereo not drawn)	> 200	> 200	
O=C1c2ccccc2CCCC12OC2c1cccnc1 (stereo not drawn)	> 257	151	
COc1cc(N=Nc2ccc(N=Nc3cc(NC(C)=O)c(N=Nc4ccc(S(=O)(=O)O)cc4)cc3S(=O)(=O)O)c(C)c2)c(C)cc1NC(=O)c1ccc(N)cc1	3.55	102	
Cc1c(CN2CCCC2)c(O)c2c(=O)c3c(O)c(CN4CCCC4)c(O)c4c5c(O)c(CN6CCCC6)c(O)c6c(=O)c7c(O)c(CN8CCCC8)c(C)c8c1c2c(c34)c(c78)c65	> 17.8	> 17.8	
Cc1nc(-c2nc(C)c(C(=O)/C=C/c3ccc(N(C)C)cc3)s2)sc1C(=O)/C=C/c1ccc(N(C)C)cc1	> 34.7	> 34.7	
C#CC(O)/C=C/C(O)CCCC(O)CC#CC(O)C#CC(O)CCCC(O)/C=C/CCCCCC(=O)CCCCCCCCCCCCCC(O)C(O)C#CC(=O)O (stereo not drawn)	> 100	58.9	
NC(N)=NS(=O)(=O)c1ccc(NNc2c3ccccc3nc3c(C(=O)Nc4ccc(S(N)(=O)=O)cc4)cccc23)cc1	> 200	10.2	
N#CC1CCCC2SC(F)(F)C(F)(F)C12 (stereo not drawn)	> 200	33.1	
Cc1nc2sc(C)c(C)c2c(=O)o1	> 200	95.5	
Cc1cccc(C)c1NC(=O)C(=O)Cc1nc2ccccc2s1			inactive
CC1(C)CC(=O)C2=C(C1)OC1=C(C(=O)CC(C)(C)C1)C2CC(c1ccccc1)c1ccc(O)c(O)c1O (stereo not drawn)	> 200	8.51	
COc1ccc(/C=C/C(=O)C(C)(C)CN2CCCCC2)cc1	> 933	10.5	
CCCCNCc1cc(S(=O)(=O)N2CCCCC2)c2cccnc2c1O	> 47.9	8.91	
O=C([O-])C(F)(F)F.[C-]#[O+].[C-]#[O+].[C-]#[O+].[C-]#[O+].[C-]#[O+].[Mn]	> 813	44.7	
CC#CCCC1CCCCN(C(=O)OC(C)(C)C)C1OCC (stereo not drawn)	> 115	58.9	
CCCCCCCC(=O)NCC(O)CNC(=O)CCCCCCC			inactive
CCCCN(CCCC)C(=O)C(=O)C(C#N)c1ccc(C)cc1 (stereo not drawn)			inactive
COc1ccc(/C=C2\CSC(=O)NC2=O)cc1OC	> 891	240	
Cc1ccc(C2=C(c3ccccc3)C(O)(c3ccccc3)C(c3ccccc3)=C2c2ccc(C)cc2)cc1	> 7.76	> 7.76	
CCN(CC)c1ccc(Cl)c2c1C(O)(C(C)C)C2(C)C (stereo not drawn)	> 200	58.9	
O=C(NC(O)(C(F)(F)F)C(F)(F)F)c1ccccc1	> 200	129	

SMILES	EC50 [µM]	IC50 [µM]	outcome
O=C1CC(NC(=O)C(F)(F)F)c2c(Br)sc(N3CCOCC3)c21 (stereo not drawn)	> 200	> 200	
Cc1cccnc1NC(=S)Nc1cccc(C(F)(F)F)c1	> 200	16.2	
COc1ccc(Br)c(CN2CCc3ccccc32)c1OS(=O)(=O)c1ccc(C)cc1			inactive
c1ccc([P+](CC2CCCO2)(c2ccccc2)c2ccccc2)cc1 (stereo not drawn)	> 200	2.82	
COC(=O)C1C2COc3ccccc3C2=NC1c1ccc([N+](=O)[O-])cc1 (stereo not drawn)	> 100	13.8	
Clc1c2ncccc2cc2n[nH]nc12	> 200	> 100	
C/C=C1\CN(C)C2Cc3c([nH]c4ccccc34)C(c3cc4c5c([nH]c4cc3OC)C3(C(=O)OC)CC4CC(CC)C3N(CC5)C4)CC1C2C(=O)OC (stereo not drawn)			inactive
Cc1ccc2nnc(NS(=O)(=O)c3cc(C)c(Cl)cc3S)n2n1	> 200	> 200	
CC(=O)N1C(C(=O)NNc2ccccc2)CSC1c1ccccc1 (stereo not drawn)	> 200	12.3	
S=c1[nH]c2ccccc2o1	> 200	166	
COc1ccc(/C=C2\CCOC2=O)cc1OC	> 776	282	
CC1CC(=O)Nc2ccccc2N1C(=O)C1CC1 (stereo not drawn)	> 200	> 200	
c1ccc(SC2CCCCO2)cc1 (stereo not drawn)			inactive
O=C(Nc1ccc(C2=NCCN2)cc1)c1cncc(C(=O)Nc2ccc(C3=NCCN3)cc2)c1	9.77	132	
CN(CCO)CCCC1COc2ccccc2O1 (stereo not drawn)	> 200	> 200	
O=C(O)c1ccc(CSc2ccc([N+](=O)[O-])cc2)cc1	> 89.1	72.4	
C=C(CC1CCCS(=O)(=O)C1)S(=O)(=O)c1ccc(C)cc1 (stereo not drawn)	> 200	> 200	
CCCCCCCCCCCCCCNCC(OCC)OCC	> 200	9.33	
COc1nc(=O)n(C2CC(N=[N+]=[N-])C(CO)O2)cc1C (stereo not drawn)	17.4	> 200	
CCCCCCCCCCCCCCCCOC1OC(CSSCC2OC(OCCCCCCCCCCCCCCCC)C(O)C(O)C2O)C(O)C(O)C1O (stereo not drawn)	5.25	6.03	
CC(=O)C1(c2ccccc2)CCCN(C)CC1 (stereo not drawn)			inactive
CCOC(=O)C1CC(C(=O)OCC)(c2ccccc2)CCC1=O (stereo not drawn)	> 58.9	47.9	
COC1OC(Cn2cc([N+](=O)[O-])nc2C)C(O)C(O)C1O (stereo not drawn)	> 200	> 200	

SMILES	EC50 [µM]	IC50 [µM]	outcome
COc1ccc(C2=C(c3ccccc3)C(=O)C(c3ccccc3)=C2c2ccccc2)cc1			inactive
Cc1ccc(N=Nc2c(N)nn3cc4c(nc23)-c2ccccc2C4)cc1	> 200	2.95	
O=c1nc2sc3ccc4ccccc4c3n2[nH]c1=O	> 47.9	> 47.9	
Cc1ccc(S(=O)(=O)c2ccsc2NC(=O)C(F)(F)F)cc1	> 200	46.8	
O=C(Nc1ccc(S(=O)(=O)Nc2ncccn2)cc1)c1ccc(C(=O)Nc2ccc(S(=O)(=O)Nc3ncccn3)cc2)cc1	> 200	> 200	
O=C(CCc1nnc2s/c(=C\c3ccccc3)c(=O)n12)Nc1cc(Cl)ccc1Cl	> 11.7	> 11.7	
CN(C)C[C@H]1CC[C@@H](CN(C)C)C1=O			inactive
NC(=O)N/N=C(\CC1OC(=O)c2ccccc21)c1ccc([N+](=O)[O-])cc1 (stereo not drawn)			inactive
S=C1Nc2cnc3ccccc3c2SC1c1ccccc1 (stereo not drawn)	> 200	56.2	
NS(=O)(=O)c1nnc(NS(=O)(=O)c2cccc3cccnc23)s1	> 200	> 200	
CN(NC(=O)c1ccc(Cl)cc1)C1=NCCCCN1	> 200	> 200	
CCOC(=O)C1CCn2c(nc3c2c(=O)n(C)c(=O)n3C)S1 (stereo not drawn)			inactive
COc1cc(C2c3cc4c(cc3OC3(O)COC(=O)C23)OCO4)cc(OC)c1OC (stereo not drawn)	> 200	105	
O=C(O)CCSC(=O)Nc1ccc([N+](=O)[O-])cc1			inactive
O=C(O)c1onc2ccccc12	> 1510	1000	
CCOc1ccc(NC(=O)C2=C(C)NC(C)=C(C(=O)Nc3ccc(OCC)cc3)C2c2ccc([N+](=O)[O-])cc2)cc1	> 12.9	> 12.9	
C[S+](C)c1ccccc1NC(C)(C)C	> 776	490	
Nc1cc(=O)[nH]c(SC2=NC(N)CC(O)C2)n1 (stereo not drawn)			inactive
CCCCCCCCCCCCCCCCCCNC(=S)/N=C/c1c(O)cc(C)oc1=O	> 200	32.4	
COc1cc([C@H]2c3cc(O)c(OC)cc3CC3C(=O)OCC32)ccc1O (stereo partly drawn)	> 363	> 363	
